Measurements taken from US9353093B2, “Indole-1-carboxamides as kinase inhibitors” (Allergan, Inc., priority 2014, dated 2016).
Where two headings read alike, the source gives them in different places.

How the values were obtained:
[1] = test system: VEGFR2 in HUVEC (human umbilical vein endothelial cells); assay: VEGFR2 Cellular Assay (FLIPR, VEGF induced increases in intracellular calcium); format: cell-based
Method: VEGFR2 Cellular Assay Automated FLIPR (Fluorometric Imaging Plate Reader) technology was used to screen for inhibitors of VEGF induced increases in intracellular calcium levels in fluorescent dye loaded endothelial cells. HUVEC (human umbilical vein endothelial cells) (Clonetics) were seeded in 384-well fibronectin coated black-walled plates overnight @37° C./5% CO2. Cells were loaded with calcium indicator Fluo-4 for 45 minutes at 37° C. Cells were washed 2 times (EIx405, Biotek Instruments) to remove extracellular dye. For screening, cells were pre-incubated with test agents for 30 minutes, at a single concentration (10 uM) or at concentrations ranging from 0.0001 to 10.0 uM followed by VEGF165 stimulation (10 ng/mL). Changes in fluorescence at 516 nm were measured simultaneously in all 384 wells using a cooled CCD camera. Data were generated by determining max-min fluorescence levels for unstimulated, stimulated, and drug treated samples. IC50 values for test compounds were calculated from % inhibition of VEGF stimulated responses in the absence of inhibitor.

[2] = biological target: purified cytoplasmic domain KDR protein (VEGFR2) (Homo sapiens (Human), UniProt P35968); assay: VEGFR2 Kinase Assay; format: biochemical; settings: 2.7 μM ATP, poly-Glu-Tyr (4:1) substrate, 15 minute incubation at 30° C.; read-out: Enzyme VEGFR2 IC50
Method: VEGFR2 Kinase Assay Biochemical KDR kinase assays were performed in 96 well microtiter plates that were coated overnight with 75 μg/well of poly-Glu-[…]:1) in 10 mM Phosphate Buffered Saline (PBS), pH 7.4. […] Reactions were carried out in 100 μL reaction volumes containing 2.7 μM ATP in kinase buffer (50 mM Hepes buffer pH 7.4, 20 mM MgCl2, 0.1 mM MnCl2 and 0.2 mM Na3VO4). […] Reactions were initiated by the addition 20 ul per well of kinase buffer containing 200-300 ng purified cytoplasmic domain KDR protein (BPS Bioscience, San Diego, Calif.). Following a 15 minute incubation at 30° C., the reactions were washed 2 mls per well PBS-T. 100 μl of a monoclonal anti-phosphotyrosine antibody-peroxidase conjugate diluted 1:10,000 in PBS-T was added to the wells for 30 minutes. Following a 2 mls per well wash with PBS-Tween-20, 100 μl of O-Phenylenediamine Dihydrochloride in phosphate-citrate buffer, containing urea hydrogen peroxide, was added to the wells for 7-10 minutes as a colorimetric substrate for the peroxidase. […] IC50 values for compound inhibition were calculated directly from graphs of optical density (arbitrary units) versus compound concentration following subtraction of blank values.

[3] = biological target: purified cytoplasmic domain PDGFR-b protein (PDGFRβ) (Homo sapiens (Human), UniProt P09619); assay: PDGFRβ Kinase Assay; format: biochemical; settings: 36 μM ATP, poly-Glu-Tyr (4:1) substrate, 60 minute incubation at 30° C.; read-out: Enzyme PDGFβ IC50
Method: Biochemical PDGFRβ kinase assays were performed in 96 well microtiter plates that were coated overnight with 75 μg of poly-Glu-Tyr (4:1) in 10 mM Phosphate Buffered Saline (PBS), pH 7.4. […] Reactions were carried out in 100 μL reaction volumes containing 36 μM ATP in kinase buffer (50 mM Hepes buffer pH 7.4, 20 mM MgCl2, 0.1 mM MnCl2 and 0.2 mM Na3VO4). […] Reactions were initiated by the addition 20 ul per well of kinase buffer containing 200-300 ng purified cytoplasmic domain PDGFR-b protein (Millipore). Following a 60 minute incubation at 30° C., the reactions were washed 2 mls per well PBS-T. 100 μl of a monoclonal anti-phosphotyrosine antibody-peroxidase conjugate diluted 1:10,000 in PBS-T was added to the wells for 30 minutes. Following a 2 mls per well wash with PBS-Tween-20, 100 μl of O-Phenylenediamine Dihydrochloride in phosphate-citrate buffer, containing urea hydrogen peroxide, was added to the wells for 7-10 minutes as a colorimetric substrate for the peroxidase. […] IC50 values for compound inhibition were calculated directly from graphs of optical density (arbitrary units) versus compound concentration following subtraction of blank values.

[4] = read-out: Receptor VEGFR2 IC50 (nM)

purified cytoplasmic domain PDGFR-b protein (PDGFRβ), sequence (P09619 554-1106): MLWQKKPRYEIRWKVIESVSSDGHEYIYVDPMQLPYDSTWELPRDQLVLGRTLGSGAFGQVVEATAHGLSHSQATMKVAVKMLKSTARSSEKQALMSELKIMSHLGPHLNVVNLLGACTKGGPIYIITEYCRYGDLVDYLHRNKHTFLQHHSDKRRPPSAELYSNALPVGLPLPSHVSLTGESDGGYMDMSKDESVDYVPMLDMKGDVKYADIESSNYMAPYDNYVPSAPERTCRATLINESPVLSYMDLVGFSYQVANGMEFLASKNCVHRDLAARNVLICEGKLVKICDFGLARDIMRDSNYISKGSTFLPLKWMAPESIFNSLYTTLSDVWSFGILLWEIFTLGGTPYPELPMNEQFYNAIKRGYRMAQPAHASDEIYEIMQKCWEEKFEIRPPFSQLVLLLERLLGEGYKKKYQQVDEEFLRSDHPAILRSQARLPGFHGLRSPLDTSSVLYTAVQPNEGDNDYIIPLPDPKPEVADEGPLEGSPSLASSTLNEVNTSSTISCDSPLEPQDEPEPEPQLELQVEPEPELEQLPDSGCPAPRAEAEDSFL
purified cytoplasmic domain KDR protein (VEGFR2), sequence (P35968 786-1356): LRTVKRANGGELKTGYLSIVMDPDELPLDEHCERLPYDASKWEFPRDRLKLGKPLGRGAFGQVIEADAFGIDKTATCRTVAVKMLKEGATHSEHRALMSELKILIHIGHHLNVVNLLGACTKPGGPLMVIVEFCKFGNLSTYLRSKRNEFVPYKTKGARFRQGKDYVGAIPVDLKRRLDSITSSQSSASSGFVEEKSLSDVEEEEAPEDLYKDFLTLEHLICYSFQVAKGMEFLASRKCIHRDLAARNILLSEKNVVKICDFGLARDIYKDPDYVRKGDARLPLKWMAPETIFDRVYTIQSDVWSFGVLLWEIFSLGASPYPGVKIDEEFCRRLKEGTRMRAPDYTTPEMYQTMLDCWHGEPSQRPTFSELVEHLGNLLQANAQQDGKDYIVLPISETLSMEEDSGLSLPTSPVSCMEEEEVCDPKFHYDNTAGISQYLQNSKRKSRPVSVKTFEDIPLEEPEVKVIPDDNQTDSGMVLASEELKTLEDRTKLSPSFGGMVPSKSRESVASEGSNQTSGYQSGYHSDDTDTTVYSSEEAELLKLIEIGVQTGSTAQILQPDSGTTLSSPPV

| Compound | IC50 [2] | IC50 [3] | IC50 [1, 4] | IC50 ([1]; VEGF165 stimulation (10 ng/mL), 30 minutes pre-incubation, Fluo-4 calcium, read-out: Receptor VEGFR2 IC50) |
| --- | --- | --- | --- | --- |
| CCc1cccc(NC(=O)Nc2ccc(-c3cc4ccccc4n3C(N)=O)cc2)c1 [Example 1, 2-[4-({[(3-ethylphenyl)amino]carbonyl}amino)phenyl]-1H-indole-1-carboxamide] | – | – | 13 nM | – |
| COC(=O)c1ccc2cc(-c3ccc(NC(=O)Nc4cccc(C)c4)cc3)n(C(N)=O)c2c1 [Example 2, methyl 1-(aminocarbonyl)-2-[4-({[(3-methylphenyl)amino]carbonyl}amino)phenyl]-1H-indole-6-carboxylate] | 0.005 µM | 0.01 µM | 11 nM | – |
| Cc1cccc(NC(=O)Nc2ccc(-c3cc4ccccc4n3C(N)=O)cc2)c1 [Example 3, 2-[4-({[(3-methylphenyl)amino]carbonyl}amino)phenyl]-1H-indole-1-carboxamide] | 0.006 µM | 0.014 µM | 17 nM | – |
| NC(=O)n1c(-c2ccc(NC(=O)Nc3cccc(C(F)(F)F)c3)cc2)cc2ccccc21 [Example 6, 2-{4-[({[3-(trifluoromethyl)phenyl]amino}carbonyl)amino]phenyl}-1H-indole-1-carboxamide] | 0.009 µM | 0.028 µM | 58 nM | – |
| Cc1ccc(F)c(NC(=O)Nc2ccc(-c3cc4ccccc4n3C(N)=O)cc2)c1 [Example 7, 2-[4-({[(2-fluoro-5-methylphenyl)amino]carbonyl}amino)phenyl]-1H-indole-1-carboxamide] | 0.009 µM | 0.02 µM | 41 nM | – |
| COc1cccc(NC(=O)Nc2ccc(-c3cc4ccccc4n3C(N)=O)cc2)c1 [Example 8, 2-[4-({[(3-methoxyphenyl)amino]carbonyl}amino)phenyl]-1H-indole-1-carboxamide] | 0.011 µM | 0.012 µM | 45 nM | – |
| NC(=O)n1c(-c2ccc(NC(=O)Nc3cc(C(F)(F)F)ccc3F)cc2)cc2ccccc21 [Example 9, 2-{4-[({[2-fluoro-5-(trifluoromethyl)phenyl]amino}carbonyl)amino]phenyl}-1H-indole-1-carboxamide] | – | 0.055 µM | – | – |
| NC(=O)n1c(-c2ccc(NC(=O)Nc3ccccc3)cc2)cc2ccccc21 [Example 10, 2-{4-[(anilinocarbonyl)amino]phenyl}-1H-indole-1-carboxamide] | 0.022 µM | 0.023 µM | 150 nM | – |
| NC(=O)n1c(-c2cc(NC(=O)Nc3cccc(C(F)(F)F)c3)cs2)cc2ccccc21 [Example 27, 2-{4-[({[3-(trifluoromethyl)phenyl]amino}carbonyl)amino]-2-thienyl}-1H-indole-1-carboxamide] | – | 0.152 µM | – | – |
| NC(=O)n1c(-c2cc(NC(=O)Nc3ccc(F)c(Cl)c3)cs2)cc2ccccc21 [Example 30, 2-[4-({[(3-chloro-4-fluorophenyl)amino]carbonyl}amino)-2-thienyl]-1H-indole-1-carboxamide] | 0.083 µM | > 10 µM | – | – |
| NC(=O)n1c(-c2cc(NC(=O)Nc3ccc(Cl)c(C(F)(F)F)c3)cs2)cc2ccccc21 [Example 31, 2-{4-[({[4-chloro-3-(trifluoromethyl)phenyl]amino}carbonyl)amino]-2-thienyl}-1H-indole-1-carboxamide] | – | 0.151 µM | – | – |
| Cc1ccoc1C(=O)Nc1csc(-c2cc3ccccc3n2C(N)=O)c1 [Example 32, 2-{4-[(3-methyl-2-furoyl)amino]-2-thienyl}-1H-indole-1-carboxamide] | 3.19 µM | > 10 µM | – | – |

Further lines, with some results ahead:

| IC50 [2] | IC50 [3] | Compound | IC50 [1, 4] | IC50 ([1]; VEGF165 stimulation (10 ng/mL), 30 minutes pre-incubation, Fluo-4 calcium, read-out: Receptor VEGFR2 IC50) |
| --- | --- | --- | --- | --- |
| – | 0.019 µM | NC(=O)n1c(-c2ccc(NC(=O)Nc3ccc(F)c(Cl)c3)cc2)cc2ccccc21 [Example 5, 2-[4-({[(3-chloro-4-fluorophenyl)amino]carbonyl}amino)phenyl]-1H-indole-1-carboxamide] | – | – |
| 0.023 µM | 0.011 µM | Cc1ccc(NC(=O)Nc2ccc(-c3cc4ccccc4n3C(N)=O)cc2)cc1 [Example 11, 2-[4-({[(4-methylphenyl)amino]carbonyl}amino)phenyl]-1H-indole-1-carboxamide] | – | > 10000 nM |
| 0.174 µM | 0.118 µM | Cc1ccccc1NC(=O)Nc1ccc(-c2cc3ccccc3n2C(N)=O)cc1 [Example 12, 2-[4-({[(2-methylphenyl)amino]carbonyl}amino)phenyl]-1H-indole-1-carboxamide] | – | – |
| 0.276 µM | – | Cc1cccc(NC(=O)Nc2cccc(-c3cc4ccccc4n3C(N)=O)c2)c1 [Example 19, 2-[3-({[(3-methylphenyl)amino]carbonyl}amino)phenyl]-1H-indole-1-carboxamide] | – | – |
| 0.24 µM | – | CCc1cccc(NC(=O)Nc2cccc(-c3cc4ccccc4n3C(N)=O)c2)c1 [Example 20, 2-[3-({[(3-ethylphenyl)amino]carbonyl}amino)phenyl]-1H-indole-1-carboxamide] | – | – |
| 0.254 µM | 3.31 µM | NC(=O)n1c(-c2cccc(NC(=O)Nc3cccc(C(F)(F)F)c3)c2)cc2ccccc21 [Example 21, 2-{3-[({[3-(trifluoromethyl)phenyl]amino}carbonyl)amino]phenyl}-1H-indole-1-carboxamide] | – | – |
| 0.249 µM | > 10 µM | NC(=O)n1c(-c2cccc(NC(=O)Nc3ccc(F)c(Cl)c3)c2)cc2ccccc21 [Example 22, 2-[3-({[(3-chloro-4-fluorophenyl)amino]carbonyl}amino)phenyl]-1H-indole-1-carboxamide] | – | – |
| 0.334 µM | 3.03 µM | Cc1ccc(F)c(NC(=O)Nc2cccc(-c3cc4ccccc4n3C(N)=O)c2)c1 [Example 23, 2-[3-({[(2-fluoro-5-methylphenyl)amino]carbonyl}amino)phenyl]-1H-indole-1-carboxamide] | – | – |
| 1.17 µM | – | Cc1cccc(C(=O)Nc2cccc(-c3cc4ccccc4n3C(N)=O)c2)c1 [Example 24, 2-{3-[(3-methylbenzoyl)amino]phenyl}-1H-indole-1-carboxamide] | – | – |
| – | 1.14 µM | Cc1cccc(NC(=O)Nc2csc(-c3cc4ccccc4n3C(N)=O)c2)c1 [Example 26, 2-[4-({[(3-methylphenyl)amino]carbonyl}amino)-2-thienyl]-1H-indole-1-carboxamide] | – | – |
| 0.06 µM | 0.264 µM | CCc1cccc(NC(=O)Nc2csc(-c3cc4ccccc4n3C(N)=O)c2)c1 [Example 28, 2-[4-({[(3-ethylphenyl)amino]carbonyl}amino)-2-thienyl]-1H-indole-1-carboxamide] | – | – |
| 0.094 µM | 4.61 µM | Cc1ccc(F)c(NC(=O)Nc2csc(-c3cc4ccccc4n3C(N)=O)c2)c1 [Example 29, 2-[4-({[(2-fluoro-5-methylphenyl)amino]carbonyl}amino)-2-thienyl]-1H-indole-1-carboxamide] | – | – |
| 3.65 µM | > 10 µM | Cc1ccc(F)c(C(=O)Nc2csc(-c3cc4ccccc4n3C(N)=O)c2)c1 [Example 33, 2-{4-[(2-fluoro-5-methylbenzoyl)amino]-2-thienyl}-1H-indole-1-carboxamide] | – | – |
